Test results published in patent US20240269214A1, “SUBSTANCE HAVING HIGH ACTIVITY AND HIGH SAFETY, PREPARATION METHOD THEREFOR, AND APPLICATION THEREOF IN DRUG” (priority 2021, published 2024).

Experiments:
[1] = test system: male Japanese white rabbits; test: Reversing and ablating atherosclerosis in rabbits with established atherosclerosis model (percentage of aortic plaque area); format: in vivo; conditions: 6 weeks modelling then 3 months treatment, oils 1.5 g/kg/d, simvastatin 2.0 mg/kg/d, MOD 45.8±9.9%, MBF 59.9±8.9%
Text: Forty-eight 4-month-old male Japanese white rabbits weighing 2.0±0.2 kg were selected and randomly divided into 2 groups, as follows: • Normal diet group (Negative control group, NC): 8 male Japanese white rabbits, fed with basic feed; • Atherosclerosis modeling group (MOD): 40 male Japanese white rabbits, fed with high fat fortified basic diet, and the dose of peanut oil was 1.5 g/kg/d (converted based on adult and animal weight, body surface area and Km factor);
The area of atherosclerotic plaque and the total area of aortic expansion is measured, and the percentage of plaque area is calculated.
Three months later, all animals are euthanized.
After the animals are killed, the aorta is removed from the aortic valve orifice to the beginning of the common iliac artery, the aortic wall is cut longitudinally along the midline of the abdomen, fixed with 10% formaldehyde solution, and the distribution map of aortic lesions is drawn according to the aorta. The area of atherosclerotic plaque and the total area of aortic expansion is measured, and the percentage of plaque area is calculated.

[2] = test system: male Japanese white rabbits; test: Inhibition of formation of atherosclerosis in rabbits on high-fat diet (percentage of aortic plaque area); format: in vivo; conditions: high-fat diet 6 weeks, oils 1.5 g/kg/d, simvastatin 2.0 mg/kg/d, PC group 42.6±9.7%
Text: High fat fortified feed: Each rabbit is fed with 0.5 grams of cholesterol, 2.0 grams of lard, and 20 grams of egg yolk daily.
Feed for 6 weeks according to the above grouping and feeding conditions, and then execute the animals. After the animals are killed, the aorta is removed from the aortic valve orifice to the beginning of the common iliac artery, the aortic wall is cut longitudinally along the midline of the abdomen, fixed with 10% formaldehyde solution, and the distribution map of aortic lesions is drawn according to the aorta. The area of atherosclerotic plaque and the total area of aortic expansion are measured, and the percentage of plaque area is calculated.

For `CCC(C)(C)C(=O)O[C@H]1C[C@@H](C)C=C2C=C[C@H](C)[C@H](CC[C@@H]3C[C@@H](O)CC(=O)O3)[C@H]21` [simvastatin], which “Plaque area (percentage of atherosclerotic plaque in aortic area)” value [1] is on record?
The value was 47.1±8.3%.

And the “Plaque area (percentage of atherosclerotic plaque in aortic area)” value [2]?
Its value is 20.2±4.2%.
